Two compounds from paper PMC3344907, “Inhibitory Effects and Underlying Mechanism of 7-Hydroxyflavone Phosphate Ester in HeLa Cells” (PLoS ONE, 2012) can be followed below.

A word on the IC50: it is the concentration needed to halve the response being measured.

In test [1] the target is T1, CaM-activated PDE1 (Ca2+-CaM-phosphodiesterase 1).
T1 construct: bovine brain PDE (Sigma-Aldrich P9529); with calmodulin (CaM)
Briefly: PDE-Glo luminescence assay of CaM-activated PDE. In kind it is biochemical, Bos taurus.

Test [2] shares this target. Briefly: PDE-Glo luminescence assay of CaM-activated PDE; supported by fluorescence quenching of the CaM-Ca2+-PDE system. In kind it is biochemical, Bos taurus.

SMILES strings stand for the structures.

The compound `O=c1cc(-c2ccccc2)oc2cc(O)ccc12` [HF, 7-hydroxyflavone] displayed a half-maximal inhibitory concentration (IC50) in test [1] of 76.7 µM.
Turning to `CCOP(=O)(OCC)Oc1ccc2c(=O)cc(-c3ccccc3)oc2c1` [FP, diethyl flavon-7-yl phosphate], the IC50 in test [2] stood at 22.3 µM.
